Laboratory results published in patent publication US12351590B2, “Pyrrolopyrimidine compound and use thereof” (GUANGZHOU JOYO PHARMATECH CO., LTD., priority 2019, dated 2025).
Blank lines part the entries; values can stand above or below the compound they belong to.

Legend:
JAK1(h) = JAK1(h) (Homo sapiens (Human), UniProt P23458); test: In vitro activity assay of JAK1 kinase (radiometric [γ-33P]-ATP); format: biochemical; settings: recombinant human JAK1
Method: (§1) Recombinant human JAK1, JAK2, JAK3 and TYK2 […], and main instruments and reagents were provided by Eurofins, UK
(§2) JAK2, JAK3 and TYK2 dilutions: 20 mM 3-(N-morpholino)propanesulfonic acid (MOPS), 1 mM EDTA, 0.01% Brij-35.5% glycerol, 0.1% β-mercaptoethanol, 1 mg/mL BSA; JAK1 dilution: 20 mM TRIS, 0.2 mM EDTA, 0.1% β-mercaptoethanol, 0.01% Brij-35.5% glycerol. All compounds were prepared in 100% DMSO and brought to 50 fold the final assay concentration. The test compounds were serially 3-fold diluted to 9 concentrations from 10 μM to 0.001 μM with DMSO content in the assay reaction being 2%. Working stock solutions of the compounds were added to the assay wells as the first component of the reaction, and then the remaining components were added according to the assay protocol detailed below.
(§3) JAK1(h) was incubated with 20 mM Tris/HCl pH 7.5, 0.2 mM EDTA, 500 μM MGEEPLYWSFPAKKK, 10 mM magnesium acetate and [γ-^33P]-ATP (activity and concentration were determined as required). The reaction was started by adding the Mg/ATP mixture and terminated by adding 0.5% phosphoric acid after 40 min of incubation at room temperature. 10 μL of the reaction mixture was then added dropwise on a P30 filter pad and washed three times with 0.425% phosphoric acid and once with methanol within 4 minutes, dried and analyzed using a scintillation counter.

JAK2(h) = JAK2(h) (Homo sapiens (Human), UniProt O60674); test: In vitro activity assay of JAK2 kinase (radiometric [γ-33P]-ATP); format: biochemical; settings: recombinant human JAK2
Method: as §1, §2
as §3, with “JAK2(h)” for “JAK1(h)”, “8” for “20”, “MOPS” for “Tris/HCl”, “7.0,” for “7.5,”, “100” for “500”, “[…],” for “MGEEPLYWSFPAKKK,”

JAK3(h) = JAK3(h) (Homo sapiens (Human), UniProt P52333); test: In vitro activity assay of JAK3 kinase (radiometric [γ-33P]-ATP); format: biochemical; settings: recombinant human JAK3
Method: as §1, §2
as §3, with “JAK3(h)” for “JAK1(h)”, “8” for “20”, “MOPS” for “Tris/HCl”, “7.0,” for “7.5,”, “GGEEEEYFELVKKKK,” for “MGEEPLYWSFPAKKK,”

TYK2(h) = TYK2(h) (Homo sapiens (Human), UniProt P29597); test: In vitro activity assay of TYK2 kinase (radiometric [γ-33P]-ATP); format: biochemical; settings: recombinant human TYK2
Method: as §1, §2
as §3, with “TYK2(h)” for “JAK1(h)”, “8” for “20”, “MOPS” for “Tris/HCl”, “7.0,” for “7.5,”, “250” for “500”, “GGMEDIYFEFMGGKKK,” for “MGEEPLYWSFPAKKK,”

Caco-2 cells = system: Caco-2 cells
Method: The transport buffer solution was HBSS (Hanks' balanced salt solution) and 10 mM HEPES [N-(2-hydroxyethyl)piperazine-N′-(2-ethanesulfonic acid)], pH 7.40±0.05; Caco-2 cells were purchased from ATCC.
Caco-2 cells were seeded at 1×10^5 cells/cm^2 in polyethylene terephthalate (PET) 96-well BD insert plates, and the medium was refreshed every 4-5 days until day 21-28 to form a confluent monolayer. Test compounds were tested in a two-way format at 2 μM in duplicate. Digoxin was added at 10 μM in the two-way format, and nadolol and metoprolol were added at 2 μM in the two-way format. Final DMSO concentration was adjusted to less than 1%. The plates were incubated in a CO2 incubator at 37±1° C. for 2 h and at 5% CO2 and saturated humidity without shaking. All samples were mixed with acetonitrile containing an internal standard, centrifuged at 4000 rpm for 10 min. 100 microliters of supernatant was diluted with 100 microliters of distilled water for LC/MS/MS analysis. By LC/MS/MS analysis, the concentrations of the test compounds and the reference compound in the initial test compound solution, the test compound solution and the test article solution using the peak area ratio of the analyte to the internal standard. After the transport test, the integrity of the Caco-2 cell monolayer was determined by fluorescein yellow exclusion reaction, and the apparent permeability coefficient and efflux ratio were calculated.

[1] = Pharmacokinetic (PK) study in mice; format: in vivo, mice (C57BL/6); settings: male C57BL/6 mice
Method: Clear solutions obtained by dissolving the test compounds were administered to male mice (C57BL/6) or rats (SD) by tail vein injection and oral gavage (overnight fasting, 7-8 weeks old). After the administration of the test compounds, plasma was separated from blood collected from the mandibular vein and centrifugation at 0.117, 0.333, 1, 2, 4, 7 and 24 h for the intravenous injection group (1 mg/kg), and at 0.25, 0.5, 1, 2, 4, 8 and 24 h for the oral gavage group (3 mg/kg). The plasma concentration was measured by LC-MS/MS method, and the relevant pharmacokinetic parameters were calculated by WinNonlin™ Version 6.3 pharmacokinetic software using non-compartmental model linear logarithmic trapezoid method.

[2] = system: rat adjuvant-induced arthritis model; test: Adjuvant-induced arthritis (AIA) in rats, in-vivo pharmacodynamic study; parameters: species or system Lewis rats; settings: for Inhibition on area under the clinical score curve, AUC (%): oral, 2 times daily, female Lewis rats; for Mean clinical arthritis score: 10 mg/kg group
Method: The compounds disclosed herein were tested for their efficacy on arthritis using a rat adjuvant-induced arthritis model. Female, 160- and 180-gram Lewis rats were anesthetized with isoflurane and injected subcutaneously with 0.1 mL of Mycobacterium tuberculosis suspension in the left hind paw. The animals were grouped and administered with the compounds 13 days after modeling. The test compound 1-13 was dissolved in a mixed vehicle of [5% DMSO, 95% (12% SBE-β-CD), 0.5% MC]. The female Lewis rats were orally administered 2 times daily (8 animals in each group).

[3] = i.v. 1 mg/kg and oral gavage 3 mg/kg groups, route not given

Sequence of JAK1(h) (P23458 whole entry): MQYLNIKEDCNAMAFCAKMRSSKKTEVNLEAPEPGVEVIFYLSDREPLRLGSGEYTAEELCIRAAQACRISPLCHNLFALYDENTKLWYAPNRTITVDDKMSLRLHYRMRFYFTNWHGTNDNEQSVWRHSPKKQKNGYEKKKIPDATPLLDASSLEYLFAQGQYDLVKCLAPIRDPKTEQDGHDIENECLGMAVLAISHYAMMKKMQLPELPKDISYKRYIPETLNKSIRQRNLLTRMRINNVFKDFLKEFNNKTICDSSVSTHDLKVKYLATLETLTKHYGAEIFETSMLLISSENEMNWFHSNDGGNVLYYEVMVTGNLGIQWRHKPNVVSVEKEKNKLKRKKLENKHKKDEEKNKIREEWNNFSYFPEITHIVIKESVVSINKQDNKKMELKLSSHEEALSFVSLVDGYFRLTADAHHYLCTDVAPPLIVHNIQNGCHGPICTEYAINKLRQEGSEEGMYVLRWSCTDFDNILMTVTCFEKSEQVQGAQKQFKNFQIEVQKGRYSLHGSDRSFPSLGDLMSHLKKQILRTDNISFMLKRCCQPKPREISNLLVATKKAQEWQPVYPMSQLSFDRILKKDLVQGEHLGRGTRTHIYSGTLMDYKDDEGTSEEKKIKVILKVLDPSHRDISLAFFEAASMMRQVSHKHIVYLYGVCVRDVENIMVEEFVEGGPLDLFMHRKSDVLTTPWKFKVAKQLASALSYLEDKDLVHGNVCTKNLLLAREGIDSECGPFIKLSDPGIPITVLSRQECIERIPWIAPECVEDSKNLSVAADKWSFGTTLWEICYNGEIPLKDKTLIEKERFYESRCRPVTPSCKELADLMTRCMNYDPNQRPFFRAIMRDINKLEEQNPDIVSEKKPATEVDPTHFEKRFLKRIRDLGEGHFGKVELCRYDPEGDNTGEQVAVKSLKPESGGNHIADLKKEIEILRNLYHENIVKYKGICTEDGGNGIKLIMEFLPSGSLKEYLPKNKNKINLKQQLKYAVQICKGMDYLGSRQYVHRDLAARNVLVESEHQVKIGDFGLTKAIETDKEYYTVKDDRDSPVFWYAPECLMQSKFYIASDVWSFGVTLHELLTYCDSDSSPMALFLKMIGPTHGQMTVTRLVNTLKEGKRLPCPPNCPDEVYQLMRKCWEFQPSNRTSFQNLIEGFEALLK
Sequence of TYK2(h) (P29597 whole entry): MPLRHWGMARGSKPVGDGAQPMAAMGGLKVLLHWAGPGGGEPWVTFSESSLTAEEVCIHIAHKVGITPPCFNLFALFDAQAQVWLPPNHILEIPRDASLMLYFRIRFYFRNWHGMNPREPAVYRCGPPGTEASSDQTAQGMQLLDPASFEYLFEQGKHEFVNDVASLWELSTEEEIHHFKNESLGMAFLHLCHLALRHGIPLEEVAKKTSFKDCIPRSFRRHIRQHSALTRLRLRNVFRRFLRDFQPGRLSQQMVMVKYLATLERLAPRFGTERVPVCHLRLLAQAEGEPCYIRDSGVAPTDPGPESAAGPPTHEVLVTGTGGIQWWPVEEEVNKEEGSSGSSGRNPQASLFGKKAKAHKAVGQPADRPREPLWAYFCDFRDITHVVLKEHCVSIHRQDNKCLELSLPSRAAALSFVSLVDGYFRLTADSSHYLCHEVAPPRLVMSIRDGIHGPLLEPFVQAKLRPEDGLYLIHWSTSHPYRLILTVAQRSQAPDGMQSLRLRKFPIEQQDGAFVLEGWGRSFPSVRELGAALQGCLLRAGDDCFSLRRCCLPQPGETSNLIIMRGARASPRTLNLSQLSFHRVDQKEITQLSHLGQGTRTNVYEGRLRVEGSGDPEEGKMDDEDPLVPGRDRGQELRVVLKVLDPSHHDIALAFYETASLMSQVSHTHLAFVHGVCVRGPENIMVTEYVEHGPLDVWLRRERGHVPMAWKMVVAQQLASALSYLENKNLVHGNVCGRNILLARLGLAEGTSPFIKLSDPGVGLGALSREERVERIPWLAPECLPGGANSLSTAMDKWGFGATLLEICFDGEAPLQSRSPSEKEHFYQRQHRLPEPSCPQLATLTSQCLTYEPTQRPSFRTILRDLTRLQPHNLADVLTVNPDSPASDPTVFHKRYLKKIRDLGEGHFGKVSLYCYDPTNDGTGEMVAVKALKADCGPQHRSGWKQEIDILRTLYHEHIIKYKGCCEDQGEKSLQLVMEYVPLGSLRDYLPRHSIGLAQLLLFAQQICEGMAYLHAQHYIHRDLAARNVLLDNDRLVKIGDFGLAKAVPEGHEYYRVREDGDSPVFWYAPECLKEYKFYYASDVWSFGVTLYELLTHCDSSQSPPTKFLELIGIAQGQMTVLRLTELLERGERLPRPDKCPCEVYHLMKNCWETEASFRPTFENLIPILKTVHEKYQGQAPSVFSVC
Sequence of JAK2(h) (O60674 whole entry): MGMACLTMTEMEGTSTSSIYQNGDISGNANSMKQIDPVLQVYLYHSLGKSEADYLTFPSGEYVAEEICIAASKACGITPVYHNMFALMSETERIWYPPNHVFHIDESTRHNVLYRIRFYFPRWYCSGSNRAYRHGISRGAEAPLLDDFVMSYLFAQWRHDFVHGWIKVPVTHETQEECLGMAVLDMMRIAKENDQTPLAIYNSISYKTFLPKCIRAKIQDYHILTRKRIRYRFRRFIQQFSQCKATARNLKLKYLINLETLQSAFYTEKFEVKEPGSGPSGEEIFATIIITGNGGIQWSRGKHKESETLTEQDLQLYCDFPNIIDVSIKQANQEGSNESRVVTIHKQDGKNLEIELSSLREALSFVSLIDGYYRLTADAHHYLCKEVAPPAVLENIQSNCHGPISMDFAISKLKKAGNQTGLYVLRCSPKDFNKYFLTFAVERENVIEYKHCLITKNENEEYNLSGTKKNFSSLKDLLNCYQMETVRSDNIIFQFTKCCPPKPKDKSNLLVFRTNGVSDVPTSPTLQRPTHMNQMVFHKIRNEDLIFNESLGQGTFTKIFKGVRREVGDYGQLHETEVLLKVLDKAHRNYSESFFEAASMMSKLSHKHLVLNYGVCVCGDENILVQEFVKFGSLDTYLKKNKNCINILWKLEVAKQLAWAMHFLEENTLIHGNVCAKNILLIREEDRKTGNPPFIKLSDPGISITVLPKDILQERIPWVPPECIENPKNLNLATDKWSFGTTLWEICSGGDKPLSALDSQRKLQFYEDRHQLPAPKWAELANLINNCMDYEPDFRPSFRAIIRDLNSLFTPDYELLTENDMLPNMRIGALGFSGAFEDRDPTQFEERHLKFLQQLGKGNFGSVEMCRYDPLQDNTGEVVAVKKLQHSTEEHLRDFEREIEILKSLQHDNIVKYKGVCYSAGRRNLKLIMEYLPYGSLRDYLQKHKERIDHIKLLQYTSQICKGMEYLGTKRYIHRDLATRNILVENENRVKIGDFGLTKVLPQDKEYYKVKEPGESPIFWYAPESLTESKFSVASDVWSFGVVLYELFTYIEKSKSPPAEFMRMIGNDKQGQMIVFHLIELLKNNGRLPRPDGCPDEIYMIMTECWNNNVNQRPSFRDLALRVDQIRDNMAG
Sequence of JAK3(h) (P52333 whole entry): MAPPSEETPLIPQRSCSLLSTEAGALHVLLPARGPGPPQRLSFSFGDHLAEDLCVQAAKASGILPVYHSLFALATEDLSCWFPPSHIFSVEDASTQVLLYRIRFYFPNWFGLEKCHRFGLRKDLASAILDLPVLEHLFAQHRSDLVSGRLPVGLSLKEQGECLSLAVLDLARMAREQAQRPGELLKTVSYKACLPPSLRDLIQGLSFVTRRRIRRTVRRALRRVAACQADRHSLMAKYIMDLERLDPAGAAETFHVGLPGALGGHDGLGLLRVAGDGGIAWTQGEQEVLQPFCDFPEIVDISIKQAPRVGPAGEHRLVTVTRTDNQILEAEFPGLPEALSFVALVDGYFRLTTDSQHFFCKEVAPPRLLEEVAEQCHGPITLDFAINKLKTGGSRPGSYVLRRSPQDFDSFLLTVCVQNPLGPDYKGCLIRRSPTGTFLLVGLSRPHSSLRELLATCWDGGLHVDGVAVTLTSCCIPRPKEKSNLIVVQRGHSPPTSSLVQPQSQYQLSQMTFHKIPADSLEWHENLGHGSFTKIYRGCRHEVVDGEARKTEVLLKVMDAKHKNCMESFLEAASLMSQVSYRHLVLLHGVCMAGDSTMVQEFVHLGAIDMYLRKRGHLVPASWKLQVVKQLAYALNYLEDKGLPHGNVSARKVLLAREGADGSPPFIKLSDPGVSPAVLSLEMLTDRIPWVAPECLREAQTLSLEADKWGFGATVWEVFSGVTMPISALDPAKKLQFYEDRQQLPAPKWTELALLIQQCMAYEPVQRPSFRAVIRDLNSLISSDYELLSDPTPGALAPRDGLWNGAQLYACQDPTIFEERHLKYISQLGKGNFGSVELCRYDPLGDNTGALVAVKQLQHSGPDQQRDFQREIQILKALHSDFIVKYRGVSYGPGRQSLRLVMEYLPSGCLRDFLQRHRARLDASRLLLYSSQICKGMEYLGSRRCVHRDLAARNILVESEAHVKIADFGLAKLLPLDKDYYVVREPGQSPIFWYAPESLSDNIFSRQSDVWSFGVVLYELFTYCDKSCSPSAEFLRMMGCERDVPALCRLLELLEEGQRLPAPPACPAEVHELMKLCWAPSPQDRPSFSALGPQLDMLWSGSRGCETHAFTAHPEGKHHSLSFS

SMILES: CN(c1ncnc2[nH]ccc12)[C@@H]1CCc2cc(C#N)nn2C1 [Compound 1-13]
IC50 (JAK1(h)): 1 nM
IC50 (JAK2(h)): 8 nM
IC50 (JAK3(h)): 118 nM
IC50 (TYK2(h)): 15 nM
Efflux ratio (Caco-2 cells; Caco-2): 1.09
Mean apparent permeability coefficient Mean Papp (10^−6 cm/s) A to B (Caco-2 cells; Caco-2, pH 7.4): 28.58 10^−6 cm/s
Mean apparent permeability coefficient Mean Papp (10^−6 cm/s) B to A (Caco-2 cells; Caco-2, pH 7.4): 31.18 10^−6 cm/s
AUC0-inf [1, 3]: 12.765 µM·h
Cmax [1, 3]: 6 µM
T1/2 [1, 3]: 1.89 h
Bioavailability (%) ([1]; oral gavage 3 mg/kg vs i.v. 1 mg/kg): 88.4%
Effect on the weight loss trend of animals caused by disease attack ([2]; 3 mg/kg and 10 mg/kg, vs solvent control group, significant difference since day 20): significant relieving effect
Therapeutic effect (inhibition rate versus vehicle control) ([2]; 3 mg/kg and 10 mg/kg, P<0.0001 versus vehicle control): significant therapeutic effect
Inhibition on area under the clinical score curve, AUC (%) ([2]; 3 mg/kg): 49.6%
Mean clinical arthritis score ([2]; day 13 (start of dosing)): 6 points
Mean clinical arthritis score ([2]; day 27 (study endpoint)): 1.4 points
Inhibition on area under the clinical score curve, AUC (%) ([2]; 10 mg/kg): 60.5%
Increase in clinical arthritis score ([2]; dose-dependent, 3 and 10 mg/kg): inhibited
Increase in paw volume ([2]; dose-dependent, 3 and 10 mg/kg): inhibited

Mean apparent permeability coefficient Mean Papp (10^−6 cm/s) A to B (Caco-2 cells; Caco-2, pH 7.4): 0.16 10^−6 cm/s
SMILES: CC(C)(C)NCC(O)COc1cccc2c1CC(O)C(O)C2 (centres unmarked) [Nadolol, reference compound]
